The values that follow come from patent publication US20230091225A1, “Bifunctional chimeric heterocyclic compounds for targeted degradation of androgen receptors and use thereof” (HINOVA PHARMACEUTICALS INC., priority 2019, published 2023).

Structures are written as SMILES. Where two headings read alike, the source gives them in different places.

The target of this assay is T1, androgen receptor (AR) (Homo sapiens, UniProt P10275).
T1 sequence (P10275 1-920): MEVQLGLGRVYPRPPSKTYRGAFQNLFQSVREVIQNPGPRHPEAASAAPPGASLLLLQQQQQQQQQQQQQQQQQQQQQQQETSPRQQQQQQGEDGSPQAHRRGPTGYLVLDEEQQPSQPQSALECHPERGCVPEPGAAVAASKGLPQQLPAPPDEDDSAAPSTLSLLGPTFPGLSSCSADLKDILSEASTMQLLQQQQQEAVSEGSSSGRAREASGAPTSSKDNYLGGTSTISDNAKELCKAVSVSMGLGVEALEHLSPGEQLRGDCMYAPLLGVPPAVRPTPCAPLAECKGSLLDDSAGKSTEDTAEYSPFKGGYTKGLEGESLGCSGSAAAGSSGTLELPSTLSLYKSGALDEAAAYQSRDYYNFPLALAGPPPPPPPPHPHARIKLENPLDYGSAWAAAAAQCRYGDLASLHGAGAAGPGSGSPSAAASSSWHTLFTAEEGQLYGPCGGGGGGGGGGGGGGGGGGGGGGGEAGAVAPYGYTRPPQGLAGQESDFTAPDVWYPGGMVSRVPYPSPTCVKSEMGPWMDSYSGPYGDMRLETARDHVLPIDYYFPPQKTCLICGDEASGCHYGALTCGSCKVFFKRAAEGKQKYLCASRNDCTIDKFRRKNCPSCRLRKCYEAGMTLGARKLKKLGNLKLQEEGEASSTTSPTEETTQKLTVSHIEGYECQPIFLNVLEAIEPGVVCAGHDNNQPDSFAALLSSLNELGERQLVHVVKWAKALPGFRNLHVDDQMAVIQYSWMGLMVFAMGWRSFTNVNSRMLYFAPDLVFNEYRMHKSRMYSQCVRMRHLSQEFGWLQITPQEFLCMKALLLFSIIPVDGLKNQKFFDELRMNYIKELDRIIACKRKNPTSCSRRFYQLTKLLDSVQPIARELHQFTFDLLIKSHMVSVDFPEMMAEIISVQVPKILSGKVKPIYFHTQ
Nature of the assay: Degradation of androgen receptor (AR) protein in VCaP cells by ELISA. The format is cell-based. The conditions noted are these: for DC50: read-out: DC50; for Dmax: VCaP, read-out: Dmax (%). (In general: ELISA stands for enzyme-linked immunosorbent assay.)

Where [1] appears, read: AR degradation, VCaP cells, 16 h, ELISA, Table 3-1.

Turning to `N#Cc1ccc(O[C@H]2CC[C@H](NC(=O)c3cnc(N4CCC(N5CCC6(CC5)CN(c5cc7c(cc5F)C(=O)N(C5CCC(=O)NC5=O)C7=O)C6)CC4)cn3)CC2)cc1Cl` (stereo partly drawn) [Compound 287, N-((1r,4r)-4-(3-chloro-4-cyanophenoxy)cyclohexyl)-5-(4-(2-(2-(2,6-dioxopiperidin-3-yl)-6-fluoro-1,3-dioxoisoindolin-5-yl)-2,7-diazaspiro[3.5]nonan-7-yl)piperidin-1-yl)pyrazine-2-carboxamide], under setting [1], the half-maximal degradation concentration (DC50) (in general, the concentration at which degradation of the target reaches its halfway point) was below 10 nM and the greatest degradation seen (Dmax) (usually the greatest extent of degradation seen) was above 80%. As to `CC1(C)[C@H](Oc2ccc(C#N)c(Cl)c2)C(C)(C)[C@H]1N1Cc2nc(C#CC3CN(C4CN(c5cc6c(cc5F)C(=O)N(C5CCC(=O)NC5=O)C6=O)C4)C3)ccc2C1=O` (stereo partly drawn) [Compound 322], under setting [1], the half-maximal degradation concentration (DC50) is below 10 nM and the maximal degradation (Dmax) is 60 to 80%.

Consider `CC1(C)[C@H](Oc2ccc(C#N)c(Cl)c2)C(C)(C)[C@H]1N1Cc2nc(C#C[C@H]3CC[C@H](N4CCN(c5ccc6c(c5)C(=O)N(C5CCC(=O)NC5=O)C6=O)CC4)CC3)ccc2C1=O` (stereo partly drawn) [Compound 325], for which, under setting [1], the half-maximal degradation concentration (DC50) is below 10 nM and the Dmax is above 80%. Regarding `CC1(C)[C@H](Oc2ccc(C#N)c(Cl)c2)C(C)(C)[C@H]1N1Cc2nc(C#CC3CCC(N4CC5CN(c6cc7c(cc6F)C(=O)N(C6CCC(=O)NC6=O)C7=O)CC5C4)CC3)ccc2C1=O` (stereo partly drawn) [Compound 340], under setting [1], the DC50 is below 10 nM and the Dmax was above 80%.

With `CC1(C)[C@H](Oc2ccc(C#N)c(Cl)c2)C(C)(C)[C@H]1N1Cc2nc(C#CC3CCC(N4CC5(CN(c6cc7c(cc6F)C(=O)N(C6CCC(=O)NC6=O)C7=O)C5)C4)CC3)ccc2C1=O` (stereo partly drawn) [Compound 341], under setting [1], the DC50 was 10 to 100 nM and the greatest degradation seen (Dmax) lay within 60 to 80%.

As for `CC1(C)[C@H](Oc2ccc(C#N)c(Cl)c2)C(C)(C)[C@H]1N1Cc2nc(C#CC3CCC(N4CC5CC4CN5c4cc5c(cc4F)C(=O)N(C4CCC(=O)NC4=O)C5=O)CC3)ccc2C1=O` (stereo partly drawn) [Compound 343], under setting [1], the DC50 is above 300 nM and the maximal degradation (Dmax) fell in the range of 40 to 60%.

On to `CC1(C)C(Oc2ccc(C#N)c(Cl)c2)C(C)(C)C1N1Cc2nc(C#CC3CCC(N4CC5CN(c6ccc7c(c6)C(=O)N([C@@H]6CCC(=O)NC6=O)C7=O)CC5C4)CC3)ccc2C1=O` (stereo partly drawn) [Compound 349, 2-Chloro-4-((1r,3r)-3-(2-((4-(5-(2-(2,6-dioxopiperidin-3-yl)-1,3-dioxoisoindolin-5-yl)hexahydropyrrolo[3,4-c]pyrrol-2(1H)-yl)cyclohexyl)ethynyl)-5-oxo-5,7-dihydro-6H-pyrrolo[3,4-b]pyridin-6-yl)-2,2,4,4-tetramethylcyclobutoxy)benzonitrile], for which the DC50 is 10 to 100 nM. Besides, under setting [1], the “Dmax (%)” value was “++++ (>80%)”. On to `CC1(C)[C@H](Oc2ccc(C#N)c(Cl)c2)C(C)(C)[C@H]1N1Cc2nc(C#CC3CCC(N4CC5(CN(c6ccc7c(c6)C(=O)N([C@@H]6CCC(=O)NC6=O)C7=O)C5)C4)CC3)ccc2C1=O` (stereo partly drawn) [Compound 350, 2-Chloro-4-((1r,3r)-3-(2-((4-(6-(2-(2,6-dioxopiperidin-3-yl)-1,3-dioxoisoindolin-5-yl)-2,6-diazaspiro[3.3]heptane-2-yl)cyclohexyl)ethynyl)-5-oxo-5,7-dihydro-6H-pyrrolo[3,4-b]pyridin-6-yl)-2,2,4,4-tetramethylcyclobutoxy) benzonitrile], for which the “Dmax (%)” value is reported as “++ (key: ++++: >80%; +++: 80%-60%; ++: 60%-40%; +: <40%)” and the 50% degradation concentration (DC50) fell in the range of 100 to 300 nM. Take `CC1(C)[C@H](Oc2ccc(C#N)c(Cl)c2)C(C)(C)[C@H]1N1Cc2nc(C#CC3CCC(N4CC5(CN(c6ccc7c(c6)C(=O)N([C@@H]6CCC(=O)NC6=O)C7=O)C5)C4)CC3)ccc2C1=O` (stereo partly drawn) [Compound 351, 2-Chloro-4-((1r,3r)-3-(2-((4-(6-(2-(2,6-dioxopiperidin-3-yl)-1,3-dioxoisoindolin-5-yl)-2,6-diazaspiro[3.3]heptane-2-yl)cyclohexyl)ethynyl)-5-oxo-5,7-dihydro-6H-pyrrolo[3,4-b]pyridin-6-yl)-2,2,4,4-tetramethylcyclobutoxy) benzonitrile]: the “Dmax (%)” value is reported as “++++ (key: A: >80%; B: 79%-50%; C: 49%-25%; D: <25%)” and the DC50 is below 10 nM. `CC1(C)[C@H](Oc2ccc(C#N)c(Cl)c2)C(C)(C)[C@H]1N1Cc2nc(C#C[C@H]3C[C@H](N4CCN(c5ccc6c(c5)C(=O)N(C5CCC(=O)NC5=O)C6=O)CC4)C3)ccc2C1=O` (stereo partly drawn) [Compound 355]: under setting [1], the DC50 was below 10 nM and the Dmax is above 80%.

Consider `CC1(C)[C@H](Oc2ccc(C#N)c(Cl)c2)C(C)(C)[C@H]1N1Cc2nc(C#C[C@H]3C[C@H](N4CCN(c5cc6c(cc5F)C(=O)N(C5CCC(=O)NC5=O)C6=O)CC4)C3)ccc2C1=O` (stereo partly drawn) [Compound 357], for which, under setting [1], the DC50 is below 10 nM and the Dmax was above 80%. As for `CC1(C)[C@H](Oc2ccc(C#N)c(Cl)c2)C(C)(C)[C@H]1N1Cc2nc(C#CC3CC(N4CC5CN(c6ccc7c(c6)C(=O)N(C6CCC(=O)NC6=O)C7=O)CC5C4)C3)ccc2C1=O` (stereo partly drawn) [Compound 358, 2-chloro-4-((1r,3r)-3-(2-((3-(5-(2-(2,6-dioxopiperidin-3-yl)-1,3-dioxoisoindolin-5-yl)hexahydropyrrolo[3,4-c]pyrrol-2(1H)-yl)cyclobutyl)ethynyl)-5-oxo-5,7-dihydro-6H-pyrrolo[3,4-b]pyridin-6-yl)-2,2,4,4-tetramethylcyclobutoxy)benzonitrile], under setting [1], the DC50 was in the range of 10 to 100 nM and the Dmax was 60 to 80%. As for `CC1(C)[C@H](Oc2ccc(C#N)c(Cl)c2)C(C)(C)[C@H]1N1Cc2nc(C#CC3CC(N4CC5CN(c6ccc7c(c6)C(=O)N(C6CCC(=O)NC6=O)C7=O)CC5C4)C3)ccc2C1=O` (stereo partly drawn) [Compound 359, 2-Chloro-4-((1r,3r)-3-(2-((3-(5-(2-(2,6-dioxopiperidin-3-yl)-1,3-dioxoisoindolin-5-yl)hexahydropyrrolo[3,4-c]pyrrol-2(1H)-yl)cyclobutyl)ethynyl)-5-oxo-5,7-dihydro-6H-pyrrolo[3,4-b]pyridin-6-yl)-2,2,4,4-tetramethylcyclobutoxy)benzonitrile], the DC50 under setting [1] was 10 to 100 nM. Consider `CC1(C)[C@H](Oc2ccc(C#N)c(Cl)c2)C(C)(C)[C@H]1N1Cc2nc(C#CC3CC(N4CC5CN(c6cc7c(cc6F)C(=O)N(C6CCC(=O)NC6=O)C7=O)CC5C4)C3)ccc2C1=O` (stereo partly drawn) [Compound 360], for which, under setting [1], the half-maximal degradation concentration (DC50) was in the range of 10 to 100 nM and the Dmax was 60 to 80%. Take `CC1(C)[C@H](Oc2ccc(C#N)c(Cl)c2)C(C)(C)[C@H]1N1Cc2nc(C#CC3CC(N4CC5CN(c6cc7c(cc6F)C(=O)N(C6CCC(=O)NC6=O)C7=O)CC5C4)C3)ccc2C1=O` (stereo partly drawn) [Compound 361, 2-Chloro-4-((1r,3r)-3-(2-((3-(5-(2,6-dioxopiperidin-3-yl)-6-fluoro-1,3-dioxoisoindolin-5-yl)hexahydropyrrolo[3,4-c]pyrrol-2(1H)-cyclobutyl)ethynyl)-5-oxo-5,7-dihydro-6H-pyrrolo[3,4-b]pyridin-6-yl)-2,2,4,4-tetramethylcyclobutoxy) benzonitrile]: the 50% degradation concentration (DC50) under setting [1] was in the range of 10 to 100 nM. Regarding `CC1(C)[C@H](Oc2ccc(C#N)c(Cl)c2)C(C)(C)[C@H]1N1Cc2nc(C#CC3CCC(N4CCC5(CC4)CN(c4ccc6c(c4)C(=O)N(C4CCC(=O)NC4=O)C6=O)C5)CC3)ccc2C1=O` (stereo partly drawn) [Compound 362], under setting [1], the DC50 is below 10 nM and the Dmax is above 80%. Turning to `CC1(C)[C@H](Oc2ccc(C#N)c(Cl)c2)C(C)(C)[C@H]1N1Cc2nc(C#CC3CCC(N4CCC5(CC4)CN(c4cc6c(cc4F)C(=O)N(C4CCC(=O)NC4=O)C6=O)C5)CC3)ccc2C1=O` (stereo partly drawn) [Compound 363], under setting [1], the DC50 lay in the range of 10 to 100 nM and the Dmax was in the range of 60 to 80%. As for `CC1(C)[C@H](Oc2ccc(C#N)c(Cl)c2)C(C)(C)[C@H]1N1Cc2nc(C#CC3CCC(N4CCC5(CCN(c6ccc7c(c6)C(=O)N(C6CCC(=O)NC6=O)C7=O)C5)C4)CC3)ccc2C1=O` (stereo partly drawn) [Compound 364, 2-Chloro-4-((1r,3r)-3-(2-((4-(7-(2-(2,6-dioxopiperidin-3-yl)-1,3-dioxoisoindolin-5-yl)-2,7-Diazaspiro[4.4]nonan-2-yl)cyclohexyl)ethynyl)-5-oxo-5,7-dihydro-6H-pyrrolo[3,4-b]pyridin-6-yl)-2,2,4,4-tetramethylcyclobutoxy) benzonitrile], under setting [1], the 50% degradation concentration (DC50) was below 10 nM and the greatest degradation seen (Dmax) was above 80%. As to `CC1(C)[C@H](Oc2ccc(C#N)c(Cl)c2)C(C)(C)[C@H]1N1Cc2nc(C#CC3CCC(N4CCC5(CCN(c6ccc7c(c6)C(=O)N(C6CCC(=O)NC6=O)C7=O)C5)C4)CC3)ccc2C1=O` (stereo partly drawn) [Compound 365, 2-Chloro-4-((1r,3r)-3-(2-((4-(7-(2-(2,6-dioxopiperidin-3-yl)-1,3-dioxoisoindolin-5-yl)-2,7-Diazaspiro[4.4]nonan-2-yl)cyclohexyl)ethynyl)-5-oxo-5,7-dihydro-6H-pyrrolo[3,4-b]pyridin-6-yl)-2,2,4,4-tetramethylcyclobutoxy) benzonitrile], under setting [1], the “Dmax (%)” value is “++++ (>80%)” and the half-maximal degradation concentration (DC50) is 10 to 100 nM.
